Reference: publication PMC9598282 (Antibiotics, 2022)
Values joined by “and” are separate entries in the source; they are usually repeats but may differ in a detail not shown here. Equal values may be shown once. Read-outs that look alike come from different tables or passages of the source.

What was measured:
[1] = system: E. coli 107115; assay: microbe, parasite or virus in culture; format: cell-based, Escherichia coli; conditions: one value per checkerboard plate; for MIC: Escherichia coli, 107115, agent alone
Protocol: (§1) The adjuvant properties of the guanidinylated polymyxins were evaluated using the checkerboard assay as previously described. The bacterial solution was prepared as described in the antimicrobial susceptibility assay. The antibiotic of interest and the adjuvant were serially diluted two-fold along the x- and y-axis on a 96-well plate, respectively, resulting in varying concentrations of both agents in each well. Equal volumes of bacterial solution were added to the designated wells. The well consisting of bacterial solution served as the positive control, while the wells containing only media served as the negative control. The plate was then incubated at 37 °C for 18 h. After incubation, an Emax Plus microplate reader (Molecular Devices, Union City, CA, USA) was used to measure the OD at a wavelength of 590 nm to confirm the turbidity. The fractional inhibitory concentration (FIC) index was then determined to establish the relationship between the antibiotic and adjuvant. The FIC index corresponds to the sum of the FICs of the antibiotic and adjuvant. The FIC of each agent is calculated by dividing its MIC when it is used in combination by its MIC when used alone. FIC indices ≤0.5, 0.5 < x ≤ 4 and >4 indicate synergy, additivity and antagonism, respectively.

[2] = system: P. aeruginosa P264-104354; assay: Checkerboard assay; format: cell-based, Pseudomonas aeruginosa; conditions: one value per checkerboard plate; for MIC: Pseudomonas aeruginosa, P264104354, agent alone
Protocol: as §1

[3] = system: P. aeruginosa P262-101856; assay: Checkerboard assay; format: cell-based, Pseudomonas aeruginosa; conditions: one value per checkerboard plate; for MIC: Pseudomonas aeruginosa, P262101856, agent alone; for MIC alone: agent alone
Protocol: as §1

[4] = system: P. aeruginosa 101243; assay: Checkerboard assay; format: cell-based, Pseudomonas aeruginosa; conditions: one value per checkerboard plate; for MIC: Pseudomonas aeruginosa, 101243, agent alone; for MIC alone: agent alone
Protocol: as §1

[5] = system: P. aeruginosa P259-96918; assay: Checkerboard assay; format: cell-based, Pseudomonas aeruginosa; conditions: Pseudomonas aeruginosa, P25996918; agent alone, one value per checkerboard plate
Protocol: as §1

[6] = system: A. baumannii AB031; assay: Checkerboard assay; format: cell-based, Acinetobacter baumannii; conditions: one value per checkerboard plate; for MIC: Acinetobacter baumannii, AB031, agent alone
Protocol: as §1

[7] = system: P. aeruginosa PA 107092; format: cell-based, Pseudomonas aeruginosa
Protocol: as §1

[8] = system: P. aeruginosa PA 88949; format: cell-based, Pseudomonas aeruginosa; conditions: one value per checkerboard plate
Protocol: as §1

[9] = system: P. aeruginosa PA 109084; format: cell-based, Pseudomonas aeruginosa
Protocol: as §1

[10] = system: P. aeruginosa PA 86052; format: cell-based, Pseudomonas aeruginosa; conditions: one value per checkerboard plate
Protocol: as §1

[11] = system: P. aeruginosa 114228; assay: microbe, parasite or virus in culture; format: cell-based, Pseudomonas aeruginosa; conditions: one value per checkerboard plate; for MIC: Pseudomonas aeruginosa, 114228, agent alone; for MIC alone: agent alone
Protocol: as §1

[12] = system: P. aeruginosa PAO1; assay: microbe, parasite or virus in culture; format: cell-based, Pseudomonas aeruginosa; conditions: for MIC: Pseudomonas aeruginosa, PAO1, 18 h, agent alone, one value per checkerboard plate, read-out: MIC alone
Protocol: as §1

[13] = system: E. coli ATCC 25922; assay: microbe, parasite or virus in culture; format: cell-based, Escherichia coli; design: key to FIC index antibiotic + GCol / FIC index antibiotic + GPMB: sum of FICs; ≤0.5 synergy, 0.5–4 additivity, >4 antagonism; conditions: for MIC: Escherichia coli, ATCC25922, 18 h, agent alone, one value per checkerboard plate, read-out: MIC alone
Protocol: as §1

[14] = system: P. aeruginosa PA 107092; assay: Time-kill assay; format: cell-based, Pseudomonas aeruginosa; conditions: for log10 increase (bacterial growth) over 24 h: monotherapy, 8 μg/mL
Protocol: To study the time-dependent killing effects of the drug combinations, the time-kill kinetics were assessed. The time-kill assay was performed following the 8 μM (2 μg/mL) concentration of avibactam used in the checkerboard assay. […] This concentration also corresponds to the susceptibility breakpoint of both β-lactams.
For the preparation of the bacterial solution, an overnight grown culture was diluted in 0.85% saline solution and adjusted to 0.5 McFarland turbidity. […] The culture tubes were incubated at 37 °C, shaking at 250 rpm. At the appointed time intervals, a 100-μL aliquot was taken from each tube, serially diluted in phosphate-buffered saline (PBS) and plated on LB agar plates. The plates were incubated at 37 °C, and bacterial colonies were counted after 18 h. The bactericidal or bacteriostatic activity is determined based on the decrease in CFU over the time period. Bactericidal activity corresponds to ≥3 log10 reduction in CFU/mL, while bacteriostatic activity corresponds to <3 log10 reduction in CFU/mL.

[15] = system: A. baumannii ATCC 17978; assay: microbe, parasite or virus in culture; format: cell-based, Acinetobacter baumannii; conditions: for MIC: Acinetobacter baumannii, ATCC17978, 18 h, agent alone, one value per checkerboard plate, read-out: MIC alone
Protocol: as §1

[16] = system: A. baumannii AB027; assay: microbe, parasite or virus in culture; format: cell-based, Acinetobacter baumannii; conditions: one value per checkerboard plate; for MIC: Acinetobacter baumannii, AB027, agent alone
Protocol: as §1

[17] = system: A. baumannii 92247; assay: microbe, parasite or virus in culture; format: cell-based, Acinetobacter baumannii; conditions: one value per checkerboard plate; for MIC: Acinetobacter baumannii, 92247, agent alone; for MIC alone: agent alone
Protocol: as §1

[18] = system: A. baumannii 110193; assay: microbe, parasite or virus in culture; format: cell-based, Acinetobacter baumannii; conditions: one value per checkerboard plate; for MIC: Acinetobacter baumannii, 110193, agent alone
Protocol: as §1

[19] = system: K. pneumoniae 113250; assay: Checkerboard assay; format: cell-based, Klebsiella pneumoniae; conditions: one value per checkerboard plate
Protocol: as §1

[20] = system: K. pneumoniae 113254; assay: Checkerboard assay; format: cell-based, Klebsiella pneumoniae; conditions: one value per checkerboard plate
Protocol: as §1

[21] = system: E. cloacae 121187; assay: microbe, parasite or virus in culture; format: cell-based, Enterobacter cloacae; conditions: one value per checkerboard plate
Protocol: as §1

[22] = system: E. coli 94393; assay: Checkerboard assay; format: cell-based, Escherichia coli; conditions: one value per checkerboard plate
Protocol: as §1

[23] = system: E. coli 94474; assay: Checkerboard assay; format: cell-based, Escherichia coli; conditions: one value per checkerboard plate
Protocol: as §1

[24] = system: E. cloacae 118564; assay: Checkerboard assay; format: cell-based, Enterobacter cloacae; conditions: Enterobacter cloacae, 118564; agent alone, one value per checkerboard plate
Protocol: as §1

[25] = one value per checkerboard plate

C[C@H]1[C@H](NC(=O)/C(=N\OC(C)(C)C(=O)O)c2csc(N)n2)C(=O)N1S(=O)(=O)O [Aztreonam]
MIC [1]: 1020 µg/mL | MIC [2]: 64 µg/mL | MIC alone ([2]; agent alone): 32 µg/mL | MIC [3]: 32 µg/mL | MIC alone [3]: 64 µg/mL | MIC [4]: 16 µg/mL | MIC alone [4]: 32 µg/mL | MIC [5]: 32 µg/mL | MIC [6]: 64 µg/mL | MIC antibiotic alone [7, 25]: 32 µg/mL and 64 µg/mL | MIC antibiotic alone ([7]; plates with 8 μM avibactam): 16 µg/mL and 8 µg/mL | MIC antibiotic alone [8]: 16 µg/mL | MIC antibiotic alone [9, 25]: 64 µg/mL | MIC antibiotic alone ([9]; plates with 8 μM avibactam): 8 µg/mL | MIC antibiotic alone [10]: 64 µg/mL and 32 µg/mL | MIC [11]: 16 µg/mL | MIC alone [11]: 8 µg/mL | Absolute MIC of antibiotic at 4 μg/mL GCol [12]: 0.5 µg/mL | Absolute MIC of antibiotic at 4 μg/mL GPMB [12]: 0.25 µg/mL | MIC [12]: 4 µg/mL | Absolute MIC of antibiotic at 2 μg/mL GCol [13]: 0.031 µg/mL | Absolute MIC of antibiotic at 2 μg/mL GPMB [13]: 0.016 µg/mL | FIC index antibiotic + GCol [13]: 0.188 | MIC [13]: 0.25 µg/mL | log10 increase (bacterial growth) over 24 h [14]: 2 to 3 log10 | Absolute MIC of antibiotic at 2 μg/mL GCol [15]: 64 µg/mL | Absolute MIC of antibiotic at 2 μg/mL GPMB [15]: 32 µg/mL | MIC [15]: 64 µg/mL | MIC [16]: 1020 µg/mL | MIC [17]: 128 µg/mL | MIC alone [17]: 256 µg/mL

CC(C)(O/N=C(\C(=O)N[C@@H]1C(=O)N2C(C(=O)[O-])=C(C[n+]3ccccc3)CS[C@H]12)c1csc(N)n1)C(=O)O [Ceftazidime]
MIC [1]: 512 µg/mL | MIC [2]: 64 µg/mL | MIC [3]: 8 µg/mL | MIC alone [3]: 16 µg/mL | MIC [4]: 64 µg/mL | MIC alone [4]: 32 µg/mL | MIC [5]: 512 µg/mL | MIC [6]: 32 µg/mL | MIC antibiotic alone [7, 25]: 64 µg/mL | MIC antibiotic alone ([7]; plates with 8 μM avibactam): 16 µg/mL and 8 µg/mL | MIC antibiotic alone [8]: 32 µg/mL | MIC antibiotic alone [9, 25]: 64 µg/mL and 128 µg/mL | MIC antibiotic alone ([9]; plates with 8 μM avibactam): 16 µg/mL | MIC antibiotic alone [10]: 64 µg/mL | MIC [11]: 4 µg/mL | MIC alone [11]: 8 µg/mL | Absolute MIC of antibiotic at 4 μg/mL GCol [12]: 0.25 µg/mL | MIC [12]: 2 µg/mL | Absolute MIC of antibiotic at 2 μg/mL GCol [13]: 0.063 µg/mL | Absolute MIC of antibiotic at 2 μg/mL GPMB [13]: 0.063 µg/mL | MIC [13]: 0.25 µg/mL | log10 increase (bacterial growth) over 24 h [14]: ~ 2 log10 | Absolute MIC of antibiotic at 2 μg/mL GCol [15]: 4 µg/mL | Absolute MIC of antibiotic at 2 μg/mL GPMB [15]: 4 µg/mL | MIC [15]: 16 µg/mL | MIC [18]: 64 µg/mL | MIC [16]: 2050 µg/mL | MIC [17]: 16 µg/mL | MIC alone [17]: 32 µg/mL

CO[C@H]1/C=C/O[C@@]2(C)Oc3c(C)c(O)c4c(O)c(c(/C=N/N5CCN(C)CC5)c(O)c4c3C2=O)NC(=O)/C(C)=C\C=C\[C@H](C)[C@H](O)[C@@H](C)[C@@H](O)[C@@H](C)[C@H](OC(C)=O)[C@@H]1C [Rifampicin]
MIC ([19]; Klebsiella pneumoniae, 113250, agent alone): 16 µg/mL | MIC alone ([19]; agent alone): 32 µg/mL | MIC ([20]; Klebsiella pneumoniae, 113254, agent alone): 8 µg/mL | MIC alone ([20]; agent alone): 16 µg/mL | MIC [1]: 32 µg/mL | MIC alone ([1]; agent alone): 16 µg/mL | MIC ([21]; Enterobacter cloacae, 121187, agent alone): 1 µg/mL | MIC alone ([21]; agent alone): 2 µg/mL | MIC [2]: 16 µg/mL | MIC [3]: 512 µg/mL | MIC [4]: 2 µg/mL | MIC alone [4]: 4 µg/mL | MIC [5]: 16 µg/mL | MIC [6]: 2 µg/mL | MIC alone ([6]; agent alone): 1 µg/mL | MIC ([22]; Escherichia coli, 94393, agent alone): 8 µg/mL | MIC alone ([22]; agent alone): 4 µg/mL | MIC ([23]; Escherichia coli, 94474, agent alone): 8 µg/mL | MIC alone ([23]; agent alone): 4 µg/mL | MIC [11]: 16 µg/mL | Absolute MIC of antibiotic at 4 μg/mL GCol [12]: 0.0625 µg/mL | Absolute MIC of antibiotic at 4 μg/mL GPMB [12]: 0.03125 µg/mL | MIC [12]: 16 µg/mL | Fold-potentiation of antibiotic ([12]; at 4 μg/mL GCol): 256 | Fold-potentiation of antibiotic ([12]; at 4 μg/mL GPMB): 512 | MIC [24]: 8 µg/mL | Absolute MIC of antibiotic at 2 μg/mL GCol [13]: 0.008 µg/mL | Absolute MIC of antibiotic at 2 μg/mL GPMB [13]: 0.008 µg/mL | FIC index antibiotic + GCol [13]: 0.023 | FIC index antibiotic + GPMB [13]: 0.07 | MIC [13]: 2 µg/mL | Fold-potentiation of antibiotic ([13]; at 2 μg/mL GCol): 256 | Fold-potentiation of antibiotic ([13]; at 2 μg/mL GPMB): 256 | Absolute MIC of antibiotic at 2 μg/mL GCol [15]: 0.0625 µg/mL | Absolute MIC of antibiotic at 2 μg/mL GPMB [15]: 0.004 µg/mL | FIC index antibiotic + GPMB [15]: 0.066 | MIC [15]: 2 µg/mL | Fold-potentiation of antibiotic ([15]; at 2 μg/mL GCol): 32 | Fold-potentiation of antibiotic ([15]; at 2 μg/mL GPMB): 512 | MIC [18]: 2 µg/mL | MIC alone ([18]; agent alone): 1 µg/mL | MIC [16]: 2 µg/mL | MIC alone ([16]; agent alone): 1 µg/mL | MIC [17]: 1 µg/mL | MIC alone [17]: 0.5 µg/mL

NC(=O)[C@@H]1CC[C@@H]2CN1C(=O)N2OS(=O)(=O)O [avibactam]
time-kill effect of dual therapy with ceftazidime ([14]; ceftazidime 8 μg/mL + GCol 2 μM or avibactam 8 μM): bacteriostatic effect
